biological target: T1, CCK Receptor (Pancreas) (Rattus norvegicus, UniProt P30551); experiment: CCK Receptor Binding (Pancreas), inhibition of specific 125I-CCK-8 binding; design: species or system Sprague-Dawley rats; conditions: rat whole pancreas membranes; 50 pM 125I-CCK-8; 25°C for 2 hours
T1 construct: The whole pancreas was dissected free of fat tissue and was homogenized; from tissue; host or cells: rat pancreas membrane homogenate
T1 sequence (P30551 1-444): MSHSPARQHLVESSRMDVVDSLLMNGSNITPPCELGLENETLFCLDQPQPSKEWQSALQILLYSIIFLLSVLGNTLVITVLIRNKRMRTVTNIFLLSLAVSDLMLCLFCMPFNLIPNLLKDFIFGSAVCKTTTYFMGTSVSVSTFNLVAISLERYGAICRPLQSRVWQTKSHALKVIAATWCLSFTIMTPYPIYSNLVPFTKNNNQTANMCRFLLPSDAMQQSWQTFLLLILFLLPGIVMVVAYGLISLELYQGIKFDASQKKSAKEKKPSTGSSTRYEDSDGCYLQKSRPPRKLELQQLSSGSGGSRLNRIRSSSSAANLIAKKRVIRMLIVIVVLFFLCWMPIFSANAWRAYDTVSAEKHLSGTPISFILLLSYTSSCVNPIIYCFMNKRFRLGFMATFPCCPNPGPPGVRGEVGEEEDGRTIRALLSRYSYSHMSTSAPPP
Protocol: CCK-8 sulphated was radiolabelled with ¹²⁵I-Bolton Hunter reagent (2000 Ci/mmole). Receptor binding was performed according to Chang and Lotti (Proc. Natl. Acad. Sci. 83, 4923-4926, 1986) with minor modifications.
Male Sprague-Dawley rats (150-200g) were sacrificed by decapitation. The whole pancreas was dissected free of fat tissue and was homogenized in 25 volumes of ice-cold 10 mM N-2-hydroxyethyl-piperazine-N′-2-ethane sulphonic acid (HEPES) buffer with 0.1% soya bean trypsin inhibitor (pH 7.4 at 25°C) with a Kinematica Polytron. The homogenates were centrifuged at 47,800 g for 10 min. Pellets were resuspended in 10 volumes of binding assay buffer (20mM (HEPES)), 1mM ethylene glycol-bis-(β-aminoethylether-N,N′-tetraacetic acid) (EGTA), 5mM MgCl₂, 150 mM NaCl, bacitracin 0.25 mg/ml, soya bean trypsin inhibitor 0.1 mg/ml, and bovine serum albumin 2 mg/ml pH 6.5 at 25°C) using a Teflon (trademark) homogenizer, 15 strokes at 500 rpm. The homogenate was further diluted in binding assay buffer to give a final concentration of 0.5 mg original wet weight/1 ml buffer. […] All assays were run in duplicate. The reaction mixtures were incubated at 25°C for 2 hours and the reaction terminated by rapid filtration (Brandell 24 well cell harvester) over Whatman GF/C filters, washing 3 x 4 mls with ice-cold 100 Mm NaCl. The radioactivity on the filters was counted with a LKB gamma counter.
Drug displacement studies were performed with at least 10 concentrations of compounds of Formula I and the IC₅₀ values were determined by regression analysis IC₅₀ refers to the concentration of the compound required to inhibit 50% of specific binding of ¹²⁵I-CCK-8.

Row | IC50 [nM] | SMILES
1 | 612 | Cc1cccc(NC(=O)NC2N=C(N3CCCC3)c3ccccc3N(C)C2=O)c1 (racemic) [Example 2, N-[3(R,S)-2.3-Dihydro-1-methyl-2-oxo-5-(pyrrolidin-1-yl)-1H-1,4-benzodiazepin-3-yl] N′-[3-methylphenyl] urea]
2 | 505 | Cc1cccc(NC(=O)NC2N=C(N3CCOCC3)c3ccccc3N(C)C2=O)c1 (racemic) [Example 3, N-[3(R,S)-2,3-Dihydro-1-methyl-5-(morpholin-4-yl)-2-oxo-1H-1,4-benzodiazepin-3-yl] N′-[3-methylphenyl] urea]
3 | 4120 | Cc1cccc(NC(=O)NC2N=C(N3CCN(C)CC3)c3ccccc3N(C)C2=O)c1 (racemic) [Example 4, N-[3(R,S)-2,3-Dihydro-1-methyl-5-(4-methylpiperazin-1-yl-2-oxo-1H-1,4-benzodiazepin-3-yl] N′-[3-methylphenyl]urea]
4 | 4320 | CCc1cccc(NC(=O)NC2N=C(N3CCN(C)CC3)c3ccccc3N(C)C2=O)c1 (racemic) [Example 5, N-[3(R,S)-2,3-Dihydro-1-methyl-5-(4-methylpiperazin-1-yl)-2-oxo-1H-1,4-benzodiazepin-3-yl] N′-[3-ethylphenyl] urea]
5 | > 3000 | Cc1ccc(NC(=O)NC2N=C(N3CCN(C)CC3)c3ccccc3N(C)C2=O)cc1 (racemic) [Example 6, N-[3(R,S)-2,3-Dihydro-1-methyl-5-(4-methylpiperazin-1-yl-2-oxo-1H-1,4-benzodiazepin-3-yl] N′-[4-methylphenyl]urea]
6 | > 3000 | CN1CCN(C2=NC(NC(=O)Nc3ccc(Cl)cc3)C(=O)N(C)c3ccccc32)CC1 (racemic) [Example 7, N-[3(R,S)-2,3-Dihydro-1-methyl-5-(4-methylpiperazin-1-yl-2-oxo-1H-1,4-benzodiazepin-3-yl] N′-[4-chlorophenyl]urea]
7 | > 3000 | Cc1cccc(NC(=O)NC2N=C(N3CCNCC3)c3ccccc3N(C)C2=O)c1 (racemic) [Example 9, N-[3(R,S)-2,3-Dihydro-1-methyl-2-oxo-5-(piperazin-1-yl)-1H-1,4-benzodiazepin-3-yl]-N′-[3-methylphenyl] urea]
8 | 900 | COc1cccc(NC(=O)NC2N=C(N3CCN(C)CC3)c3ccccc3N(C)C2=O)c1 (racemic) [Example 10, N-[3(R,S)-2,3-Dihydro-1-methyl-5-(4-methylpiperazin-1-yl)-2-oxo-1H-1,4-benzodiazepin-3-yl]-N#MIN#-[3-methoxyphenyl] urea]
9 | 2300 | CN1CCN(C2=NC(NC(=O)Nc3cccc(O)c3)C(=O)N(C)c3ccccc32)CC1 (racemic) [Example 11, N-[3(R,S)-2,3-Dihydro-1-methyl-5-(4-methylpiperazin-1-yl)-2-oxo-1H-1,4-benzodiazepin-3-yl]-N#MIN#-[3-hydroxyphenyl] urea]
10 | > 3000 | CCCN1C(=O)C(NC(=O)Nc2cccc(OC)c2)N=C(N2CCN(C)CC2)c2ccccc21 (racemic) [Example 12, N-[3(R,S)-2,3-Dihydro-5-(4-methylpiperazin-1-yl)-2-oxo-1-propyl-1H-1,4-benzodiazepin-3-yl]-N#MIN#-[3-methoxyphenyl] urea]
11 | > 3000 | CN1CCN(C2=NC(NC(=O)Nc3cccc(-c4nnn(C)n4)c3)C(=O)N(C)c3ccccc32)CC1 (racemic) [Example 13, N-[3(R,S)-2,3-Dihydro-1-methyl-2-oxo-5-(4-methylpiperazin-1-yl)-1H-1,4-benzodiazepin-3-yl]-N′-[3-(2-methyltetrazol-5-yl)phenyl] urea]
12 | > 3000 | CN1CCN(C2=NC(NC(=O)Nc3cccc(-c4nnnn4C)c3)C(=O)N(C)c3ccccc32)CC1 (racemic) [Example 14, N-[3(R,S)-2,3-Dihydro-1-methyl-2-oxo-5-(4-methylpiperazin-1-yl)-1H-1,4-benzodiazepin-3-yl)-N′-[3-(1-methyltetrazol-5-yl)phenyl] urea]
13 | > 3000 | CN1CCN(C2=NC(NC(=O)Nc3cccc(C(=O)N(C)C)c3)C(=O)N(C)c3ccccc32)CC1 (racemic) [Example 15, N-[3(R,S)-2,3-Dihydro-1-methyl-2-oxo-5-(4-methylpiperazin-1-yl)-1H-1,4-benzodiazepin-3-yl]-N′-[3-(N,N-dimethylcarboxamido)phenyl] urea]
14 | > 3000 | Cc1cccc(NC(=O)NC2N=C(N3CCCNCC3)c3ccccc3N(C)C2=O)c1 (racemic) [Example 16, N-[3(R,S)-2,3-Dihydro-5-(homopiperazin-1-yl)-1-methyl-2-oxo-1H-1,4-benzodiazepin-3-yl]-N′-[3-methylphenyl] urea]
15 | 2800 | Cc1cccc(NC(=O)NC2N=C(N3CCCN(C)CC3)c3ccccc3N(C)C2=O)c1 (racemic) [Example 17, N-[3(R,S)-2,3-Dihydro-1-methyl-5-(4-methylhomopiperazin-1-yl)-2-oxo-1H-1,4-benzodiazepin-3-yl]-N′-[3-methylphenyl] urea]
16 | > 3000 | CCNC(=O)c1cccc(NC(=O)NC2N=C(N3CCN(C)CC3)c3ccccc3N(C)C2=O)c1 (racemic) [Example 18, N-[3(R,S)-2,3-Dihydro-1-methyl-2-oxo-5-(4-methylpiperazin-1-yl)-1H-1,4-benzodiazepin-3-yl]-N′-[3-(N-ethylcarboxamido)phenyl] urea]
17 | 25 | CCc1cccc(NC(=O)NC2N=C(N3CCCCC3)c3ccccc3N(C)C2=O)c1 (racemic) [Example 19, N-[3(R,S)-2,3-Dihydro-1-methyl-2-oxo-5-(piperidin-1-yl)-1H-1,4-benzodiazepin-3-yl]-N′-[3-ethylphenyl] urea]
18 | 10 | Cc1cccc(NC(=O)NC2N=C(N3CCCCCC3)c3ccccc3N(C)C2=O)c1 (racemic) [Example 20, N-[3(R,S)-2,3-Dihydro-5-(homopiperidin-1-yl)-1-methyl-2-oxo-1H-1,4-benzodiazepin-3-yl]-N′-[3-methylphenyl] urea]
19 | 2400 | CCCN1C(=O)C(NC(=O)Nc2cccc(CC)c2)N=C(N2CCN(C)CC2)c2ccccc21 (racemic) [Example 21, N-[3(R,S)-2,3-Dihydro-5-(4-methylpiperazin-1-yl)-2-oxo-1-propyl-1H-1,4-benzodiazepin-3-yl]-N#MIN#-[3-ethylphenyl] urea]
20 | 1800 | Cc1cccc(NC(=O)NC2N=C(N3CCN(C)CC3)c3ccccc3N(CC(C)C)C2=O)c1 (racemic) [Example 22, N-[3(R,S)-2,3-Dihydro-5-(4-methylpiperazin-1-yl)-1-(2-methylpropyl)-2-oxo-1H-1,4-benzodiazepin-3-yl]-N′-[3-methylphenyl] urea]
21 | 2400 | CCc1cccc(NC(=O)NC2N=C(N3CCN(C)CC3)c3ccccc3N(CC(C)C)C2=O)c1 (racemic) [Example 23, N-[3(R,S)-2,3-Dihydro-5-(4-methylpiperazin-1-yl)-1-(2-methylpropyl)-2-oxo-1H-1,4-benzodiazepin-3-yl]-N′-[3-ethylphenyl] urea]
22 | 2700 | CN1CCN(C2=NC(NC(=O)Nc3cccc(C(F)(F)F)c3)C(=O)N(C)c3ccccc32)CC1 (racemic) [Example 30, N-[3(R,S)-2,3-Dihydro-1-methyl-2-oxo-5-(4-methylpiperazin-1-yl)-1H-1,4-benzodiazepin-3-yl]-N′-[3-trifluoromethylphenyl] urea]
23 | 3450 | CN1CCN(C2=NC(NC(=O)Nc3ccccc3)C(=O)N(C)c3ccccc32)CC1 (racemic) [Example 31, N-[3(R,S)-2,3-Dihydro-1-methyl-2-oxo-5-(4-methylpiperazin-1-yl)-1H-1,4-benzodiazepin-3-yl]-N′-phenyl urea]
24 | > 3000 | CCCN1C(=O)C(NC(=O)Nc2ccc3c(c2)CCC3)N=C(N2CCN(C)CC2)c2ccccc21 (racemic) [Example 33, N-[3(R,S)-2,3-Dihydro-5-(4-methylpiperazin-1-yl)-2-oxo-1-propyl-1H-1,4-benzodiazepin-3-yl]-N′-[5-indanyl] urea]
25 | > 3000 | CCCN1C(=O)C(NC(=O)Nc2cccc(C)c2)N=C(N2CCNCC2)c2ccccc21 (racemic) [Example 36, N-[3(R,S)-2,3-Dihydro-2-oxo-5-(piperazin-1-yl)-1-propyl-1H-1,4-benzodiazepin-3-yl]-N′-[3-methylphenyl] urea]
26 | 3730 | CCCN1C(=O)C(NC(=O)Nc2cccc(C)c2)N=C(N2CCN(CC)CC2)c2ccccc21 (racemic) [Example 37, N-[3(R,S)-2,3-Dihydro-5-(4-ethylpiperazin-1-yl)-2-oxo-1-propyl-1H-1,4-benzodiazepin-3-yl]-N#MIN#-[3-methylphenyl] urea]

Source: patent EP0539170A1, “Benzodiazepine derivatives and their use as antagonists of cholecystokinin and/or gastrin receptors” (priority 1991, dated 1993)
